Data taken from US20240197869A1, “HYPERACTIVATORS OF MAMMALIAN DENDRITIC CELLS” (Corner Therapeutics, Inc., priority 2021, published 2024).

How the values were obtained:
[1] = system: human monocyte-derived dendritic cells (moDCs); experiment: DAMP screen: IL-1β secretion by LPS-activated human moDCs (ELISA); format: cell-based
Experimental: Danger-Associated Molecular Pattern (DAMP) Screen.
(§1) Quantification of IL-1beta Secretion. IL-1beta secretion was assessed using the ELISA MAX Deluxe Set Human IL-1beta kit (Biolegend). ELISAs were performed according to manufacturer's instructions with the following modifications: i) total sample volume for incubation was reduced from […] the top standard was prepared at […], with two-fold dilutions to […]; and iii) sample incubation was completed overnight at 4 C on an orbital shaker. […] To determine IL-1beta concentration in supernatants, sample IL-1beta concentrations were interpolated using a standard curve via 4PL analysis on GraphPad Prism 9 (GraphPad Software). The interpolated results of samples were then adjusted for any dilutions made to the supernatant.

[2] = system: human monocyte-derived dendritic cells (moDCs); experiment: DAMP screen: viability of human moDCs (CellTiter-Glo)
[3] = system: human monocyte-derived dendritic cells (moDCs); experiment: Lipid titration: IL-1β secretion by LPS-activated human moDCs; format: cell-based
Experimental: as §1

[4] = system: human monocyte-derived dendritic cells (moDCs); experiment: Lipid titration: viability of human moDCs (CellTiter-Glo); conditions: 10.3 μM lipid + LPS 1 μg/mL, 2 days; relative to LPS-treated moDCs; Table 1-5
Experimental: Lipid Titration. After 6 days of differentiation into moDC, cells were collected and counted. Cells were replated at 100,000 cells/well in R10 media in 96-well flat bottom tissue culture-treated plates. LPS, serotype 055:B5 (Enzo Life Sciences) was added to a final concentration of 1 μg/mL in each well. After the addition of LPS, lipids were prepared. […] After two days of culture, cell cultures were used for endpoint analyses.
Endpoint Analyses. After culturing moDCs with PAMPs and DAMPs for two days, supernatant and cell samples were collected for analysis. Cells in culture were pelleted by centrifugation at 400×g for 5 min.
Quantification of Cell Viability. Cell viability was assessed by quantifying the presence of ATP as an indicator of metabolically active cells using the CellTiter-Glo Luminescent Cell Viability Assay (Promega). Metabolic activity was assessed following manufacturer's instructions. The CellTiter-Glo reagent was mixed with the cell pellets and remaining supernatant, and transferred to a white, opaque 96-well plate. Luminescence was measured on all wavelengths on a Spectramax iD3 plate reader (Molecular Devices) using an integration time of 500 ms. Percent viability was calculated relative to the control condition of moDCs treated with LPS.
Statistical Analyses. […] For each tested condition, cells from each donor were plated to be tested in triplicate.

[5] = 41.3 μM lipid + LPS 1 μg/mL, 2 days, Table 1-2
[6] = 41.3 μM lipid + LPS 1 μg/mL, 2 days, relative to LPS-treated moDCs, Table 1-2
[7] = 82.5 μM lipid + LPS 1 μg/mL, 2 days, relative to LPS-treated moDCs, Table 1-1
[8] = 82.5 μM lipid + LPS, selected lipids, Table 1-3 (repeats Table 1-1)
[9] = 10.3 μM lipid + LPS 1 μg/mL, 2 days, Table 1-5
[10] = 20.6 μM lipid + LPS, human moDCs, 4 donors, mean (SD in wrapped line below)

SMILES	IL-1β secretion [1, 5]	Relative Viability (%) ± SD [2, 6]	Relative Viability (%) ± SD [2, 7]	further results
CCCCCCCCCCCCCCCC(=O)O[C@H](CO)COP(=O)([O-])OCC[N+](C)(C)C [2-16:0 LYSO PC, 1-hydroxy-2-palmitoyl-sn-glycero-3-phosphocholine]	93.0 pg/mL	87.2%	43.9%	–
CCCCCCCCCCCCCCCCCC(=O)O[C@H](CO)COP(=O)([O-])OCC[N+](C)(C)C [2-18:0 LYSO PC, 2-stearoyl-sn-glycero-3-phosphocholine]	225.0 pg/mL	65.3%	11.5%	–
CCCCCCCC/C=C\CCCCCCCC(=O)O[C@H](CO)COP(=O)([O-])OCC[N+](C)(C)C [2-18:1 Δ9 LYSO PC, 1-hydroxy-2-oleoyl-sn-glycero-3-phosphocholine]	45.0 pg/mL	100.6%	97.7%	–
CCCCCC(=O)OC[C@@H](O)COP(=O)([O-])OCC[N+](C)(C)C [06:0 LYSO PC]	48.2 pg/mL	96.1%	92.8%	–
CCCCCCC(=O)OC[C@@H](O)COP(=O)([O-])OCC[N+](C)(C)C [07:0 LYSO PC]	36.0 pg/mL	97.9%	93.9%	–
CCCCCCCC(=O)OC[C@@H](O)COP(=O)([O-])OCC[N+](C)(C)C [08:0 LYSO PC]	32.2 pg/mL	96.7%	95.3%	–
CCCCCCCCC(=O)OC[C@@H](O)COP(=O)([O-])OCC[N+](C)(C)C [09:0 LYSO PC]	31.3 pg/mL	98.2%	95.4%	–
CCCCCCCCCCC(=O)OC[C@@H](O)COP(=O)([O-])OCC[N+](C)(C)C [11:0 LYSO PC]	39.3 pg/mL	94.9%	92.8%	–
CCCCCCCCCCCC(=O)OC[C@@H](O)COP(=O)([O-])OCC[N+](C)(C)C [12:0 LYSO PC]	54.5 pg/mL	96.6%	91.1%	IL-1β secretion [1, 8]: 115.3 pg/mL; IL-1β secretion [3, 9]: 43.1 pg/mL; IL-1β secretion [3, 10]: 44.2 pg/mL; Relative Viability (%) ± SD [2, 8]: 91.1%; Relative Viability (%) ± SD [4]: 97.3%
CCCCCCCCCCCCC(=O)OC[C@@H](O)COP(=O)([O-])OCC[N+](C)(C)C [13:0 LYSO PC, 1-tridecanoyl-2-hydroxy-sn-glycero-3-phosphocholine]	80.7 pg/mL	93.9%	93.2%	–
CCCCCCCCCCCCCCCC(=O)O[C@H](COC(=O)CCCCCCCCCCCCC)COP(=O)([O-])OCC[N+](C)(C)C [14:0-16:0 PC]	32.7 pg/mL	97.1%	90.8%	–
CCCCCCCCCCCCCCCCCC(=O)O[C@H](COC(=O)CCCCCCCCCCCCC)COP(=O)([O-])OCC[N+](C)(C)C [14:0-18:0 PC]	24.0 pg/mL	100.0%	90.5%	–
CCCCCCCCCCCCCCC(=O)OC[C@@H](O)COP(=O)([O-])OCC[N+](C)(C)C [15:0 LYSO PC, 1-pentadecanoyl-2-hydroxy-sn-glycero-3-phosphocholine]	150.3 pg/mL	90.8%	65.4%	–
CCCCCCCCCCCCCCCC(=O)OC[C@@H](O)COP(=O)([O-])OCC[N+](C)(C)C [16:0 LYSO PC, 1-palmitoyl-2-hydroxy-sn-glycero-3-phosphocholine]	97.4 pg/mL	87.2%	44.7%	–
CCCCCCCCCCCCCCCC(=O)OC[C@H](COP(=O)([O-])OCC[N+](C)(C)C)OC(=O)CCCCCCCCCCCCC [16:0-14:0 PC]	42.2 pg/mL	101.0%	87.4%	–
CCCCCCCCCCCCCCCCCC(=O)O[C@H](COC(=O)CCCCCCCCCCCCCCC)COP(=O)([O-])OCC[N+](C)(C)C [16:0-18:0 PC]	26.3 pg/mL	97.7%	88.8%	–
CCCCCCCC/C=C\CCCCCCCC(=O)O[C@H](COC(=O)CCCCCCCCCCCCCCC)COP(=O)([O-])OCC[N+](C)(C)C [16:0-18:1 PC (POPC)]	28.2 pg/mL	96.5%	92.9%	–
CCCCCCCCCCCCCCCC(=O)OC[C@H](COP(=O)([O-])OCC[N+](C)(C)C)OC(=O)CCCCCCCCCCC(CCCCCC)OC(=O)CCCCCCCCCCCCCCC (stereo partly drawn) [16:0-(12-PAHSA) PC]	37.0 pg/mL	98.3%	96.9%	–
CCCCCC/C=C\CCCCCCCCC(=O)OC[C@@H](O)COP(=O)([O-])OCC[N+](C)(C)C [17:1 Δ^10 LYSO PC, 1-(10Z-heptadecenoyl)-2-hydroxy-sn-glycero-3-phosphocholine]	42.7 pg/mL	97.2%	95.3%	–
CCCCCCCCCCCCCCCCCC(=O)OC[C@H](COP(=O)([O-])OCC[N+](C)(C)C)OC(=O)CCCCCCCCCCCCC [18:0-14:0 PC]	31.2 pg/mL	98.1%	86.1%	–
CCCCCCCCCCCCCCCCCC(=O)OC[C@H](COP(=O)([O-])OCC[N+](C)(C)C)OC(=O)CCCCCCCCCCCCCCC [18:0-16:0 PC]	20.1 pg/mL	100.3%	85.3%	–
CCCCCCCC/C=C\CCCCCCCC(=O)OC[C@@H](O)COP(=O)([O-])OCC[N+](C)(C)C [18:1 Δ^9 LYSO PC]	34.8 pg/mL	97.8%	91.5%	–
CCCCCCCCCCCCCCCCCCC(=O)OC[C@@H](O)COP(=O)([O-])OCC[N+](C)(C)C [19:0 LYSO PC, 1-nonadecanoyl-2-hydroxy-sn-glycero-3-phosphocholine]	468.9 pg/mL	39.4%	2.7%	IL-1β secretion [1, 8]: 209.3 pg/mL; IL-1β secretion [3, 9]: 43.0 pg/mL; IL-1β secretion [3, 10]: 55.6 pg/mL; lipid activity index, ranking in words ([3]; lipid 1.3-82.5 μM + LPS): followed by 19:0 Lyso PC; Activity Units (AU) ± SD (lipid activity index) ([3]; reciprocal of lowest concentration giving IL-1β two-fold over LPS x highest IL-1β signal, lipid 1.3-82.5 μM + LPS): 6.34 ± 3.39 AU; Relative Viability (%) ± SD [2, 8]: 2.7%; Relative Viability (%) ± SD [4]: 96.4%
CCCCCCCCCCCCCCCCCCCC(=O)OC[C@@H](O)COP(=O)([O-])OCC[N+](C)(C)C [20:0 LYSO PC, 1-arachidoyl-2-hydroxy-sn-glycero-3-phosphocholine]	168.7 pg/mL	75.2%	6.0%	–
CCCCCCCCCCCCCCCCCCCCCCCCCC(=O)OC[C@@H](O)COP(=O)([O-])OCC[N+](C)(C)C [26:0 LYSO PC]	43.1 pg/mL	93.3%	94.7%	–
